{"source": "paper PMC6359543", "about": "“Efficacy of Azatyrosine-Phenylbutyric Hydroxamides, a Histone Deacetylase Inhibitor, on Chemotherapy-Induced Gastrointestinal Mucositis” (International Journal of Molecular Sciences, 2019)", "key": {"[1]": {"system": "Chinese Hamster Ovary cells (CHO-K1)", "assay": "Chromosome aberration assay", "format": "cell-based", "settings": "Mitomycin C 1µg/mL", "experimental": "Chinese hamster ovary epithelial cells (CHO-K1, American Type Culture Collection, Manassas, VA, USA) were cultured in 6-cm dishes at a density of 2 × 10^5 cells/mL for chromosomal abnormality analysis. […] Colemid (0.1 μg/mL) was administered 3 h before trypsinization, followed by treatment with 0.9% sodium citrate at 37 °C and Carnoy’s solution (methanol:acetic acid, 3:1). The cells were stained with 3% Giemsa solution in 0.07 M phosphate buffer (pH 6.8) on glass slides. […] The data were expressed as the total mean number of chromosomal aberrations per treatment ± standard deviation (SD) from three independent experiments."}, "C57BL/6 mice": {"system": "C57BL/6 mice", "settings": "mouse, in vivo, ip, 11 mg/kg", "method": "C57BL/6 mice were treated with 11 mg/kg/day cisplatin on day 0. Gavages of 50, 100, and 250 mg/kg AzP were given on days −1, 0, and 1. From a total of 9 mice, 3 were sacrificed on days 3 and 5, and their intestine collected for further immunohistological observations. Weights were recorded daily until day 9.\nFor the mucositis model experiments using chemotherapy, 45 female C57BL/6 mice were randomly placed in 5 groups for 3 days of treatment with AzP (50–250 mg/kg) P.O. on days −1, 0 and 1. Cisplatin (11 mg/kg) was intraperitoneally injected on day 0 as the chemotherapy. Control mice were injected with an appropriate vehicle. Mice were weighed daily and expressed as relative mean body weight change (%) from baseline (day 0 = 100%) and monitored closely for signs of morbidity over the course of the weeks to follow. On days 3 and 5, 3 of 9 mice were randomly chosen from each group and sacrificed for further intestinal analysis (Figure 1B). Control mice were injected with HPβCD as vehicle.\nHistological and immunohistological observations of the intestine were performed on mice pretreated with AzP or HPβCD, followed by a course of cisplatin chemotherapy as described above. The mice were euthanized, intestines were removed, and a segment of the swiss-rolled trimming jejunum underwent formalin fixation and paraffin embedding. Hematoxylin and eosin stain were performed to observe the morphometry of villus length and crypt depth [28]. Also, tissue sections were deparaffinized and rehydrated through a series of alcohols followed by antigen retrieval with Tris-EDTA buffer (10 mM TrisBase, 1 mM EDTA, 0.05% Tween 20, pH 9.0). Then, the HRP/DAB (ABC) Detection immunohistochemistry (IHC) Kit (Abcam, Cambridge, UK) was used. Tissue sections were quenched with endogenous peroxidase (3% hydrogen peroxide) for 10 min, followed by 5% Bovine serum albumin (BSA) blocking for 5 min and subsequent incubation with primary antibodies overnight at 4 °C. Following washing, the tissue sections were incubated with biotinylated secondary antibody for 10 min, followed by streptavidin peroxidase for another 10 min. After washing, the colorimetric reaction was developed by incubation with DAB substrate for 5 min and underwent microscopy observation."}, "[2]": {"system": "Salmonella typhimurium TA100", "format": "cell-based", "method": "(§1) Five strains of Salmonella typhimurium, TA98, TA102, TA100, TA1537, and TA1535, were obtained from Moltox (Boone, NC, USA). Mutagenicity was evaluated by the incorporation method in the presence or absence of S9 metabolic activation [29]. A volume of 100 µL of each test bacterial culture (10^9 cells/mL), 2 mL soft agar (0.6% agar, 0.5% NaCl, 5 mM histidine, and 50 mM biotin, pH 7.4, 40–50 °C), 0.5 mL S9 mixture (if necessary), and AzP were mixed well in a test tube. […] The revertant colonies were counted, and a positive mutagenic response was identified when (i) the number of revertants was at least double the spontaneous yield; (ii) a statistical significance (p ≤ 0.05) was found; and (iii) a reproducible positive dose response was present."}, "[3]": {"system": "Salmonella typhimurium TA102", "settings": "Positive Control: 2-aminoanthrene 5 µg /plate", "experimental": "Five strains of Salmonella typhimurium, TA98, TA102, TA100, TA1537, and TA1535, were obtained from Moltox (Boone, NC, USA). Mutagenicity was evaluated by the incorporation method in the presence or absence of S9 metabolic activation. A volume of 100 µL of each test bacterial culture (10^9 cells/mL), 2 mL soft agar (0.6% agar, 0.5% NaCl, 5 mM histidine, and […], pH 7.4, 40–50 °C), 0.5 mL S9 mixture (if necessary), and AzP were mixed well in a test tube. […] The revertant colonies were counted, and a positive mutagenic response was identified when (i) the number of revertants was at least double the spontaneous yield; (ii) a statistical significance (p ≤ 0.05) was found; and (iii) a reproducible positive dose response was present."}, "[4]": {"system": "Salmonella typhimurium TA1535", "format": "cell-based", "method": "as §1"}, "[5]": {"system": "Salmonella typhimurium TA1537", "assay": "Salmonella/microsome reversion assay (Ames test), TA1537", "format": "cell-based", "method": "as §1"}, "IEC-6 cells": {"system": "IEC-6 cells", "assay": "LPS-induced MAPK/Akt phosphorylation in IEC-6 cells (Western blot)", "format": "cell-based, Rat", "settings": "LPS 500 ng/mL, 10 min", "experimental": "Figure 6 Western blotting of IEC-6 cells treated with LPS and/or AzP. (A) IEC-6 cells (1 × 10^6 cells/mL) were dispensed on 6 cm dishes and (A) treated with LPS (500 ng/mL) for 10, 20, 30, 60, and 90 min. Data expressed as means ± SD from 3 independent experiments. * p < 0.05 as compared with the resting. (B) Treatment with LPS (500 ng/mL) for 10 min as indicated. Cells were treated with the indicated concentrations of AzP (5, 10, and 20 μM) or vehicle for 30 min before treatment with LPS. Cell lysates were collected for Western blot targeting p-ERK phosphorylation (Thr202/Tyr204, B), MEK phosphorylation ([…], C), and Akt phosphorylation (Ser473, D). Data expressed as means ± SD from 3 independent experiments. ### p < 0.001 as compared with the resting, * p < 0.05, ** p < 0.01 and *** p < 0.001 as compared with the vehicle.\nIEC-6 cells were incubated in different AzP concentrations with/without LPS stimulation for 24 h. The homogenate from cells or tissues was then centrifuged at 14,000× g for 10 min at 4 °C and the supernatant was collected. Protein separation was performed using 10% reducing SDS-PAGE, electrotransferred onto polyvinylidene difluoride (PVDF), and immunoblotted with antibodies against inflammatory proteins as well as β-actin as control. Densitometry was performed using BioLight software V2000.01 (Uhldingen-Mühlhofen, Germany). The optical density of specific protein was normalized to an internal control and expressed as a ratio to control."}, "[6]": {"system": "Salmonella typhimurium TA98", "assay": "Salmonella/microsome reversion assay (Ames test), TA98", "format": "cell-based", "settings": "Positive Control: 4-Nitro-o-phenylenediamine 2.5 µg / plate", "method": "as §1"}, "male ICR mice": {"system": "male ICR mice", "assay": "Micronucleus test", "settings": "Cyclophosphamide 200 mg/kg", "experimental": "Male ICR mice (n = 5) were administered AzP orally by gavage, at doses of 5, 50, and 500 mg/kg body weight. […] At 24, 48, and 72 h after dosing, 2-μL blood samples were collected from the tail vein onto a slide stained with acridine orange (40 μg/mL). The ratio (%) of polychromatic erythrocytes (PCEs) to total erythrocytes was determined using fluorescence microscopy. In addition, the frequency of micronucleated polychromatic erythrocytes (MNPCEs; ‰) was counted to a total of 1000 erythrocytes or PCEs per animal."}, "[7]": {"settings": "3 hours without S9 metabolic activation"}, "[8]": {"settings": "24 hours without S9 metabolic activation"}, "[9]": {"settings": "Positive Control: 2-aminoanthrene 5 µg /plate"}, "[10]": {"settings": "Positive Control: Sodium Azide 5 µg / plate"}}, "data": [{"compound": "CO[C@@]12[C@H](COC(N)=O)C3=C(C(=O)C(C)=C(N)C3=O)N1C[C@@H]1N[C@@H]12", "note": "[Mitomycin C, reference compound]", "values": [{"measurement": "Aberrant cell (%) With gap", "setting": "[1]; [7]", "result": "7.67±1.15", "unit": "%"}, {"measurement": "Number of cells with structural aberrations (%) B: chromosome break", "setting": "[1]; [7]", "result": "0.00±0.00", "unit": "%"}, {"measurement": "Number of cells with structural aberrations (%) G: chromosome gap", "setting": "[1]; [7]", "result": "0.00±0.00", "unit": "%"}, {"measurement": "Number of cells with structural aberrations (%) e: exchange", "setting": "[1]; [7]", "result": "2.00±1.00", "unit": "%"}, {"measurement": "Aberrant cell (%) With gap", "setting": "[1]; [8]", "result": "10.00±1.73", "unit": "%"}, {"measurement": "Number of cells with structural aberrations (%) B: chromosome break", "setting": "[1]; [8]", "result": "0.00±0.00", "unit": "%"}, {"measurement": "Number of cells with structural aberrations (%) G: chromosome gap", "setting": "[1]; [8]", "result": "0.00±0.00", "unit": "%"}, {"measurement": "Number of cells with structural aberrations (%) e: exchange", "setting": "[1]; [8]", "result": "4.33±2.52", "unit": "%"}]}, {"compound": "N.N.[Cl][Pt][Cl]", "note": "[cisplatin, reference compound]", "values": [{"measurement": "Relative mean body weight (day 0 = 100%)", "setting": "C57BL/6 mice", "result": "76.0 ± 4.7", "unit": "%"}]}, {"compound": "Nc1ccc2cc3ccccc3cc2c1", "note": "[2-aminoanthrene, reference compound]", "values": [{"measurement": "Revertant colonies per plate (+S9) TA100", "setting": "[2]; [9]", "result": "1514.7±6.9"}, {"measurement": "Revertant colonies per plate (+S9) TA102", "setting": "[3]", "result": "1409.8±78.2"}, {"measurement": "Revertant colonies per plate (+S9) TA1535", "setting": "[4]; [9]", "result": "1182.9±81.6"}, {"measurement": "Revertant colonies per plate (+S9) TA1537", "setting": "[5]; [9]", "result": "1282.8±109"}]}, {"compound": "lipopolysaccharide [LPS, reference compound]", "values": [{"measurement": "ERK phosphorylation compared to the control", "setting": "IEC-6 cells", "result": "1.8 ± 0.3", "unit": "fold"}]}, {"compound": "Nc1c2ccccc2nc2ccccc12", "note": "[9-Aminoacridine, reference compound]", "values": [{"measurement": "Revertant colonies per plate (-S9) TA1537", "setting": "[5]; Positive Control: 9-Aminoacridine 50 µg /plate", "result": "1671.8±184"}]}, {"compound": "[N-]=[N+]=[N-].[Na+]", "note": "[Sodium Azide, reference compound]", "values": [{"measurement": "Revertant colonies per plate (-S9) TA100", "setting": "[2]; [10]", "result": "1433.6±94.4"}, {"measurement": "Revertant colonies per plate (-S9) TA1535", "setting": "[4]; [10]", "result": "1506.7±62.3"}]}, {"compound": "Nc1ccc([N+](=O)[O-])cc1N", "note": "[4-Nitro-o-phenylenediamine, reference compound]", "values": [{"measurement": "Revertant colonies per plate (-S9) TA98", "setting": "[6]", "result": "1549.3±37.6"}]}, {"compound": "O=P1(N(CCCl)CCCl)NCCCO1", "note": "(stereo not drawn) [Cyclophosphamide, reference compound]", "values": [{"measurement": "Reticuloctes(%)", "setting": "male ICR mice; Day 1", "result": "1.60±0.12", "unit": "%"}, {"measurement": "Reticuloctes(%)", "setting": "male ICR mice; Day 2", "result": "0.93±0.07", "unit": "%"}, {"measurement": "Reticuloctes(%)", "setting": "male ICR mice; Day 3", "result": "1.07±0.16", "unit": "%"}]}]}
